Test results as given in US12497370B2, “Isoxazoline derivatives” (Elanco Tiergesundheit AG, priority 2019, dated 2025).
Like-named read-outs stand apart in the source and are kept apart here.

What was measured:
[1] = PK determination following administration to beagle dogs; type: in vivo; settings: dog
Description: PK Determination Following Administration to Beagle Dogs
Behavior of single oral or intravenous dose of the desired compound was assessed in beagle dogs. The animals (n=6) received the compound by oral gavage (3 or 10 mg/kg) or intravenous dose (1 or 2 mg/kg). Blood samples were collected predose and at 0.25, 0.5, 1, 2, 4, 8, 24, 48, 72, 96, 168, 336, 504, 672, 1008, 1344, 1680, 2016, 2352, 2688, 2856 and 3024 h postdose. A portion of each whole blood sample was processed to plasma. Test article concentrations in plasma and whole blood were determined using LC-MS/MS.

[2] = tested on: fleas (Ctenocephalides felis); experiment: In vitro evaluation of ingestion activity against fleas; settings: flea ingestion test, compound in organic bovine blood (0.5% DMSO), adult fleas, percent mortality between 2 h and 48 h post infestation, read-out: EC50 (the source's name)
Description: In Vitro Evaluation of Ingestion Activity Against Fleas (Ctenocephalides felis)
For flea ingestion tests, serial dilutions of the compound stock were performed using DMSO to achieve the desired range for EC50 and EC90 determination. An aliquot of each compound dilution was added to organic bovine blood with a final DMSO concentration of 0.5% and placed in an artificial feeding container. Fipronil is included to serve as a positive control. Ten newly emerged unfed adult fleas, 0-7 days old Ctenocephalides felis, from a laboratory colony, were aspirated into each vial or cage. The cages for flea ingestion assays were held in a temperature-controlled artificial feeding apparatus to allow continual access to organic bovine blood containing the desired concentration of compound. Fresh aliquots of compound-spiked bovine blood were provided daily for the duration of the study. Fleas were evaluated for percent mortality at various time points between 2 h and 48 h post infestation. Fleas showing normal movement and/or jumping ability were considered viable and those showing no movement after tapping the vials were scored as dead.

[3] = in vivo, beagle dogs, single oral gavage (3 or 10 mg/kg) or intravenous dose (1 or 2 mg/kg), LC-MS/MS, read-out: Half-life (converted)
[4] = in vivo, beagle dogs, single oral gavage (3 or 10 mg/kg) or intravenous dose (1 or 2 mg/kg), LC-MS/MS, read-out: Plasma clearance (converted)

SMILES	LC50 [2]	further results
Cc1cc(C2=NOC(c3cc(C(F)(F)F)cc(Cl)c3F)(C(F)(F)F)C2)sc1C(=O)NCC(=O)NCC(F)(F)F (stereo not drawn) [4.1 or 4.2]	–	clearance ([1]; beagle, in vivo): 2.36 mL/h/kg; half-life ([1]; beagle, in vivo): 44 days
Cc1cc(C2=NOC(c3cc(Cl)cc(Cl)c3)(C(F)(F)F)C2)ccc1C(=O)NCC(=O)NCC(F)(F)F (stereo not drawn) [fluralaner, reference compound]	–	half-life [1, 3]: 12 to 15 days
Cc1cc(C2=NOC(c3cc(C(F)(F)F)cc(Cl)c3F)(C(F)(F)F)C2)ccc1C(=O)NCC(=O)NCC(F)(F)F (stereo not drawn) [3.1 or 3.2]	< 1 µg/mL	clearance ([1]; beagle, in vivo): 2.55 mL/h/kg; half-life ([1]; beagle, in vivo): 50 days
Cc1cc(C2=NO[C@@](c3cc(Cl)c(Cl)c(Cl)c3)(C(F)(F)F)C2)sc1C(=O)NCC(=O)NCC(F)(F)F [lotilaner, reference compound]	–	half-life [1, 3]: 25 days; clearance ([1]; plasma, beagle dogs, single oral gavage (3 or 10 mg/kg) or intravenous dose (1 or 2 mg/kg), LC-MS/MS, read-out: Plasma clearance (converted)): 7.5 mL/h/kg
O=C(CNC(=O)c1ccc(C2=NOC(c3cc(C(F)(F)F)cc(Cl)c3F)(C(F)(F)F)C2)c2ccccc12)NCC(F)(F)F (stereo not drawn) [2.1 or 2.2]	< 1 µg/mL	clearance ([1]; beagle, in vivo): 2.31 mL/h/kg; half-life ([1]; beagle, in vivo): 45 days
Cc1cc(C2=NOC(c3cc(C(F)(F)F)cc(Cl)c3F)(C(F)(F)F)C2)ccc1C(=O)N[C@H]1CN(CC(F)(F)F)C1=O (single isomer, unassigned) [Example 3.72, 4-[(5R or S)-5-[3-chloro-2-fluoro-5-(trifluoromethyl)phenyl]-5-(trifluoromethyl)-4H-isoxazol-3-yl]-2-methyl-N-[(3S)-2-oxo-1-(2,2,2-trifluoroethyl)azetidin-3-yl]benzamide]	< 3 µg/mL	–
Cc1cc(C2=NO[C@](c3cc(C(F)(F)F)cc(Cl)c3F)(C(F)(F)F)C2)ccc1C(=O)N[C@H]1C[C@@H](C(F)(F)F)C1 (single isomer, unassigned) [Example 3.74, 2-methyl-4-[(5R or S)-5-[3-chloro-2-fluoro-5-(trifluoromethyl)phenyl]-5-(trifluoromethyl)-4H-isoxazol-3-yl]-N-[cis-3-(trifluoromethyl)cyclobutyl] benzamide]	< 1 µg/mL	–
Cc1cc(C2=NOC(c3cc(C(F)(F)F)cc(Cl)c3F)(C(F)(F)F)C2)ccc1C(=O)NC1C[S+]([O-])C1 (single isomer, unassigned) [Example 3.55]	< 1 µg/mL	–
Cc1cc(C2=NOC(c3cc(C(F)(F)F)cc(Cl)c3F)(C(F)(F)F)C2)ccc1C(=O)NC1CN(S(=O)(=O)N(C)C)C1 (single isomer, unassigned) [Example 3.66, N-[1-(dimethylsulfamoyl)azetidin-3-yl]-2-methyl-4-[(5R or S)-5-[3-chloro-2-fluoro-5-(trifluoromethyl)phenyl]-5-(trifluoromethyl)-4H-isoxazol-3-yl]benzamide]	< 1 µg/mL	–
Cc1cc(C2=NOC(c3cc(C(F)(F)F)cc(Cl)c3F)(C(F)(F)F)C2)ccc1C(=O)N[C@H]1C[C@@H](S(C)(=O)=O)C1 (single isomer, unassigned) [Example 3.49, 4-[(5R or S)-5-[3-chloro-2-fluoro-5-(trifluoromethyl)phenyl]-5-(trifluoromethyl)-4H-isoxazol-3-yl]-2-methyl-N-((cis)3-methylsulfonylcyclobutyl) benzamide]	< 1 µg/mL	–
Cc1cc(C2=NOC(c3cc(C(F)(F)F)cc(Cl)c3F)(C(F)(F)F)C2)ccc1C(=O)N[C@H]1CC[C@@H](C#N)CC1 (single isomer, unassigned) [Example 3.91, N-(cis-4-cyanocyclohexyl)-2-methyl-4-[(5R or S)-5-[3-chloro-2-fluoro-5-(trifluoromethyl)phenyl]-5-(trifluoromethyl)-4H-isoxazol-3-yl]benzamide]	< 1 µg/mL	–
Cc1cc(C2=NOC(c3cc(C(F)(F)F)cc(Cl)c3F)(C(F)(F)F)C2)ccc1C(=O)NC1CS(=O)(=O)C1 (single isomer, unassigned) [Example 3.52, 4-[(5R or S)-5-[3-chloro-2-fluoro-5-(trifluoromethyl)phenyl]-5-(trifluoromethyl)-4H-isoxazol-3-yl]-N-(1,1-dioxothietan-3-yl)-2-methyl-benzamide]	< 1 µg/mL	–
Cc1cc(C2=NOC(c3cc(C(F)(F)F)cc(Cl)c3F)(C(F)(F)F)C2)ccc1C(=O)NC1CN(C(N)=O)C1 (single isomer, unassigned) [Example 3.71, 3-[[2-methyl-4-[(5S or R)-5-[3-chloro-2-fluoro-5-(trifluoromethyl)phenyl]-5-(trifluoromethyl)-4H-isoxazol-3-yl]benzoyl]amino]azetidine-1-carboxamide]	< 1 µg/mL	–
CS(=O)(=O)CC(=O)N1CC2(C1)OCc1cc(C3=NO[C@](c4cc(C(F)(F)F)cc(C(F)F)c4F)(C(F)(F)F)C3)ccc12 [1.1 or 1.2]	< 3 µg/mL	clearance ([1]; beagle, in vivo): 2.36 mL/h/kg; half-life ([1]; beagle, in vivo): 36 days
Cc1cc(C2=NOC(c3cc(C(F)(F)F)cc(Cl)c3F)(C(F)(F)F)C2)ccc1C(=O)NCC1(S(C)(=O)=O)CC1 (single isomer, unassigned) [Example 3.83, 2-methyl-N-[(1-methylsulfonylcyclopropyl)methyl]-4-[(5R or S)-5-[3-chloro-2-fluoro-5-(trifluoromethyl)phenyl]-5-(trifluoromethyl)-4H-isoxazol-3-yl]benzamide]	< 1 µg/mL	–
CCN1C[C@H](NC(=O)c2ccc(C3=NOC(c4cc(C(F)(F)F)cc(Cl)c4F)(C(F)(F)F)C3)cc2C)CC1=O (single isomer, unassigned) [Example 3.87, 4-[(5R or S)-5-[3-chloro-2-fluoro-5-(trifluoromethyl)phenyl]-5-(trifluoromethyl)-4H-isoxazol-3-yl]-N-[(3R)-1-ethyl-5-oxo-pyrrolidin-3-yl]-2-methyl-benzamide]	< 1 µg/mL	–
O=C(CNC(=O)c1ccc(C2=NOC(c3cc(Cl)cc(C(F)(F)F)c3)(C(F)(F)F)C2)c2ccccc12)NCC(F)(F)F (stereo not drawn) [afoxolaner, reference compound]	–	half-life [1, 3]: 15.5 days; clearance [1, 4]: 4.96 mL/h/kg
Cc1cc(C2=NOC(c3cc(C(F)(F)F)cc(Cl)c3F)(C(F)(F)F)C2)ccc1C(=O)N[C@@H]1CCN(CC#N)C1 (single isomer, unassigned) [Example 3.76, 4-[(5S or R)-5-[3-chloro-2-fluoro-5-(trifluoromethyl)phenyl]-5-(trifluoromethyl)-4H-isoxazol-3-yl]-N-[(3R)-1-(cyanomethyl)pyrrolidin-3-yl]-2-methyl-benzamide]	< 1 µg/mL	–
Cc1cc(C2=NOC(c3cc(C(F)(F)F)cc(Cl)c3F)(C(F)(F)F)C2)ccc1C(=O)NC1(C)CSC1 (single isomer, unassigned) [Example 3.93, 2-methyl-N-(3-methylthietan-3-yl)-4-[(5R or S)-5-[3-chloro-2-fluoro-5-(trifluoromethyl)phenyl]-5-(trifluoromethyl)-4H-isoxazol-3-yl]benzamide]	< 1 µg/mL	–
CS(=O)(=O)CC(=O)N1CC2(C1)OCc1cc(C3=NO[C@@](c4cc(Cl)c(F)c(Cl)c4)(C(F)(F)F)C3)ccc12 [sarolaner, reference compound]	–	half-life [1, 3]: 12 days; clearance [1, 4]: 7.21 mL/h/kg
